Reference: patent US20230151003A1, “COMPOUNDS AND METHODS OF USE” (Exelixis, Inc., priority 2020, published 2023)
Where a name gives a salt, the structure may show the parent alone.

Tests used:
KDR = KDR (Homo sapiens, UniProt P35968); experiment: KDR autophosphorylation ELISA in HUVEC cells; type: cell-based; parameters: endogenous in cells; host or cells: HUVEC (Lonza #C2519A); conditions: Table 3 Cellular Activities, VEGF165-stimulated, phospho-KDR ELISA
Procedure, shortened: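 HUVECs grown 24 h at 37 °C, then serum-starved 24 h, were preincubated 1 h with an 8-point compound series (0.3% DMSO) and stimulated with 100 ng/mL human VEGF165 for 5 min. Phospho-KDR in lysates was measured by sandwich ELISA against a phospho-KDR standard; IC50 from 4-parameter logistic fit.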

AXL = molecular target: T1, AXL (Homo sapiens, UniProt P30530); experiment: AXL autophosphorylation ELISA in A-172 cells; type: cell-based; conditions: Table 3 Cellular Activities, Gas6-stimulated, phospho-AXL ELISA
T1 construct: endogenous in cells; host or cells: A-172 glioblastoma cells (ATCC #CRL-1620)
T1 sequence (P30530 26-894): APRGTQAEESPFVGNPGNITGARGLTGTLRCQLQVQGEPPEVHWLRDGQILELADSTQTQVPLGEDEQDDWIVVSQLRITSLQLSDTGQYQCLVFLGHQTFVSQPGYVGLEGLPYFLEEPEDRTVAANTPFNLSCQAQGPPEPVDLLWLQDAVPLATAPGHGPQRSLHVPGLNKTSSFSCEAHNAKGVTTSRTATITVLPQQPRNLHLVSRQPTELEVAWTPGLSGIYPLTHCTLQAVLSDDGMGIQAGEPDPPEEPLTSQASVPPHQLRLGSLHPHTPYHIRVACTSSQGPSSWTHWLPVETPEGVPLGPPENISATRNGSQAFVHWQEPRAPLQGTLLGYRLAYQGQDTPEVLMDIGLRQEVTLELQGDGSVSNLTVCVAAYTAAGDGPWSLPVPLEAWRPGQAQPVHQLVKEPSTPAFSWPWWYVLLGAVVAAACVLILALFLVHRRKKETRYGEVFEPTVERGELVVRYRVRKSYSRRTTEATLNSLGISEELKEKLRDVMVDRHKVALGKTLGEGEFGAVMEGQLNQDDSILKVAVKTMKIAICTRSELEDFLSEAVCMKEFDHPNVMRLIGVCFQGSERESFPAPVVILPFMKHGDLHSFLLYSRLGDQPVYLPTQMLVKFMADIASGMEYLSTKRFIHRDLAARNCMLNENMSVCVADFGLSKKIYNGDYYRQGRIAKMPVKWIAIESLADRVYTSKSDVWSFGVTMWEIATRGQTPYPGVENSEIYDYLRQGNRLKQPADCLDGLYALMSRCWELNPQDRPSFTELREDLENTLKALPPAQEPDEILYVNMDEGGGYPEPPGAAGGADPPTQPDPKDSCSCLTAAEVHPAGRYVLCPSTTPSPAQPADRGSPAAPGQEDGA
Procedure, shortened: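 Phospho-AXL in lysates measured by ELISA after Gas6 stimulation (1 μg/mL, 15 min) of A-172 cells pre-incubated 1 h with an 8-point compound dilution series in 0.3% DMSO after 24 h serum starvation. IC50 by 4-parameter logistic fit, with DMSO-treated and reference-inhibitor wells as 100% and 0% activity.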

Chain of KDR (P35968 20-1356): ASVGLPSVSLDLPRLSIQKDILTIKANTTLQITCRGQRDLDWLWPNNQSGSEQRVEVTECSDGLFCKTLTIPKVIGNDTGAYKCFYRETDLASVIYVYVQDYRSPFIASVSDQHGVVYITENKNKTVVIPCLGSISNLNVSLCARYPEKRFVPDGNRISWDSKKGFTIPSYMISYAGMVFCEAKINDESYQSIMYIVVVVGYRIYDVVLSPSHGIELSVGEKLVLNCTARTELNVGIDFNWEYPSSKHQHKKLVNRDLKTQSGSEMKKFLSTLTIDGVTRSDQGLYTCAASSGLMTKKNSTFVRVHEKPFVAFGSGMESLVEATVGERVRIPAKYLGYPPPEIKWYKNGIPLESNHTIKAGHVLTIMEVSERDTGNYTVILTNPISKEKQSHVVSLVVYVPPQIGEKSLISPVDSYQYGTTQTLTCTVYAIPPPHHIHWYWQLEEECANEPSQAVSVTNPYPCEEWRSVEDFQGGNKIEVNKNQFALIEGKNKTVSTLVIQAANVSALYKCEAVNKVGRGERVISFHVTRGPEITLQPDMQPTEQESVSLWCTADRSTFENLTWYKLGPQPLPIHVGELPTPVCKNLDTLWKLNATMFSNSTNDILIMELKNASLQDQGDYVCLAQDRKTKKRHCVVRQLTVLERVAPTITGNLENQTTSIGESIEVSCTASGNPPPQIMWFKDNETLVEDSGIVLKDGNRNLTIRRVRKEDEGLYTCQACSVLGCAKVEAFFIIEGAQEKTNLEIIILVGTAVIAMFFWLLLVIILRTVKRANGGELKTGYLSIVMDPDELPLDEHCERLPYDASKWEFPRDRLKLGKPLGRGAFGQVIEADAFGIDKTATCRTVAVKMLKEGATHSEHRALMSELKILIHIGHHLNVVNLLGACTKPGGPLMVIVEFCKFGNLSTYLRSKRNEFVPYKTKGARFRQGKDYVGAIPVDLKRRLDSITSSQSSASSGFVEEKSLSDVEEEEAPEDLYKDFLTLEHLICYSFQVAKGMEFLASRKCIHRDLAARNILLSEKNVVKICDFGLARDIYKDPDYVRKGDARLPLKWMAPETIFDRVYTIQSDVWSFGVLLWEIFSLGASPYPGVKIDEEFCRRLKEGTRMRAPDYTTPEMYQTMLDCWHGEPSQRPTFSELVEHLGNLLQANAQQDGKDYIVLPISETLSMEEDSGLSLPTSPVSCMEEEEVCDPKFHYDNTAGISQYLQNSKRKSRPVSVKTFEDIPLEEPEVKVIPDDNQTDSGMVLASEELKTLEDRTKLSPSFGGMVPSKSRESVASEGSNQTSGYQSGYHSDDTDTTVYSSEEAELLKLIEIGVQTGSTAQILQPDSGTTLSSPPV

SMILES | IC50 (KDR) | IC50 (AXL)
COc1cc2nccc(Oc3ccc(NC(=O)c4ccc(C)n(-c5cccnc5)c4=O)cc3F)c2nc1OC [Compound 222, N-[4-[(6,7-Dimethoxy-1,5-naphthyridin-4-yl)oxy]-3-fluorophenyl]-6-methyl-2-oxo-1-pyridin-3-ylpyridine-3-carboxamide] | ≤ 100 nM | ≤ 100 nM
COc1cnc2c(Oc3ccc(NC(=O)c4cc(C(C)=O)c(C)n(-c5ccco5)c4=O)cc3F)ccnc2c1 [Compound 238, 5-Acetyl-N-[3-fluoro-4-[(7-methoxy-1,5-naphthyridin-4-yl)oxy]phenyl]-1-(furan-2-yl)-6-methyl-2-oxopyridine-3-carboxamide] | 300 to 1000 nM | 100 to 300 nM
COc1cc2nccc(Oc3ccc(NC(=O)c4ncc(C)n(-c5ccc(F)cn5)c4=O)cc3F)c2nc1OC [Compound 219, N-[4-[(6,7-Dimethoxy-1,5-naphthyridin-4-yl)oxy]-3-fluorophenyl]-4-(5-fluoropyridin-2-yl)-5-methyl-3-oxopyrazine-2-carboxamide] | ≤ 100 nM | ≤ 100 nM
COc1cc2nccc(Oc3ccc(NC(=O)c4nccn(-c5ccc(F)cn5)c4=O)cc3F)c2nc1OC [Compound 246, N-[4-[(6,7Dimethoxy-1,5-naphthyridin-4-yl)oxy]-3-fluorophenyl]-4-(5-fluoropyridin-2-yl)-3-oxopyrazine-2-carboxamide] | 100 to 300 nM | ≤ 100 nM
COc1cc2nccc(Oc3ccc(NC(=O)c4c(C)nc(C)c(-c5ccc(F)cn5)c4O)cc3F)c2nc1OC [Compound 218, N-[4-[(6,7-Dimethoxy-1,5-naphthyridin-4-yl)oxy]-3-fluorophenyl]-5-(5-fluoropyridin-2-yl)-4-hydroxy-2,6-dimethylpyridine-3-carboxamide] | ≤ 100 nM | ≤ 100 nM
COc1cc2nccc(Oc3ccc(NC(=O)c4nnc(C)c(-c5ccc(F)cn5)c4OC)cc3F)c2nc1OC [Compound 215, N-[4-[(6,7-Dimethoxy-1,5-naphthyridin-4-yl)oxy]-3-fluorophenyl]-5-(5-fluoropyridin-2-yl)-4-methoxy-6-methylpyridazine-3-carboxamide] | 300 to 1000 nM | ≤ 100 nM
CCOc1ccn(-c2ccc(F)cn2)c(=O)c1C(=O)Nc1ccc(Oc2ccnc3cc(OC)c(OC)nc23)c(F)c1 [Compound 243, N-[4-[(6,7-dimethoxy-1,5-naphthyridin-4-yl)oxy]-3-fluorophenyl]-4-ethoxy-1-(5-fluoropyridin-2-yl)-2-oxopyridine-3-carboxamide] | 100 to 300 nM | ≤ 100 nM
COc1cc2nccc(Oc3ccc(NC(=O)c4ccc(C)n(-c5ccc(F)c(C)n5)c4=O)cc3F)c2nc1OC [Compound 227, N-[4-[(6,7-Dimethoxy-1,5-naphthyridin-4-yl)oxy]-3-fluorophenyl]-1-(5-fluoro-6-methylpyridin-2-yl)-6-methyl-2-oxopyridine-3-carboxamide hydrochloride] | ≤ 100 nM | ≤ 100 nM
COc1cc2nccc(Oc3ccc(NC(=O)c4ccc(C)n(-c5ccc(F)cn5)c4=O)cc3)c2nc1OC [Compound 44, N-[4-[(6,7-Dimethoxy-1,5-naphthyridin-4-yl)oxy]phenyl]-1-(5-fluoropyridin-2-yl)-6-methyl-2-oxopyridine-3-carboxamide] | ≤ 100 nM | ≤ 100 nM
COc1cc2nccc(Oc3ccc(NC(=O)c4cccn(-c5ccncc5)c4=O)cc3F)c2nc1OC [Compound 229, N-[4-[(6,7-Dimethoxy-1,5-naphthyridin-4-yl)oxy]-3-fluorophenyl]-2-oxo-1-pyridin-4-ylpyridine-3-carboxamide] | ≤ 100 nM | ≤ 100 nM
COc1cc2nccc(Oc3ccc(NC(=O)c4c(C)nc(C)c(-c5ccc(F)cn5)c4O)cc3)c2nc1OC [Compound 216, N-[4-[(6,7-Dimethoxy-1,5-naphthyridin-4-yl)oxy]phenyl]-5-(5-fluoropyridin-2-yl)-4-hydroxy-2,6-dimethylpyridine-3-carboxamide] | ≤ 100 nM | ≤ 100 nM
COc1cc2nccc(Oc3ccc(NC(=O)c4c(C)n(C)cc(-c5ccc(F)cn5)c4=O)cc3F)c2nc1OC [Compound 71, N-[4-[(6,7-Dimethoxy-1,5-naphthyridin-4-yl)oxy]-3-fluorophenyl]-5-(5-fluoropyridin-2-yl)-1,2-dimethyl-4-oxopyridine-3-carboxamide] | 300 to 1000 nM | ≤ 100 nM
COc1cnc2c(Oc3ccc(NC(=O)c4cc(C(C)=O)c(C)n(-c5ccoc5)c4=O)cc3F)ccnc2c1 [Compound 240, 5-Acetyl-N-[3-fluoro-4-[(7-methoxy-1,5-naphthyridin-4-yl)oxy]phenyl]-1-(furan-3-yl)-6-methyl-2-oxopyridine-3-carboxamide] | 300 to 1000 nM | ≤ 100 nM
COc1cc2nccc(Oc3ccc(NC(=O)c4cc(C#N)c(C)n(-c5ccc(F)cn5)c4=O)cc3F)c2nc1OC [Compound 56, 5-Cyano-N-[4-[(6,7-dimethoxy-1,5-naphthyridin-4-yl)oxy]-3-fluorophenyl]-1-(5-fluoropyridin-2-yl)-6-methyl-2-oxopyridine-3-carboxamide] | 300 to 1000 nM | ≤ 100 nM

Next, values leading:

IC50 (KDR) | IC50 (AXL) | SMILES
300 to 1000 nM | ≤ 100 nM | COc1cnc2c(Oc3ccc(NC(=O)c4cn(CCF)c(C)c(-c5cc(C)cs5)c4=O)cc3F)ccnc2c1 [Compound 328, 1-(2-Fluoroethyl)-N-[3-fluoro-4-[(7-methoxy-1,5-naphthyridin-4-yl)oxy]phenyl]-6-methyl-5-(4-methylthiophen-2-yl)-4-oxopyridine-3-carboxamide]
≤ 100 nM | ≤ 100 nM | COc1cc2nccc(Oc3ccc(NC(=O)c4cnc(C)c(-c5ccco5)c4O)cc3)c2nc1OC [Compound 255, N-[4-[(6,7-Dimethoxy-1,5-naphthyridin-4-yl)oxy]phenyl]-5-(furan-2-yl)-4-hydroxy-6-methylpyridine-3-carboxamide]
300 to 1000 nM | ≤ 100 nM | COc1cc2nccc(Oc3ccc(NC(=O)c4c5n(cc(-c6cccs6)c4=O)CCOC5)cc3F)c2nc1OC [Compound 309, N-[4-[(6,7-Dimethoxy-1,5-naphthyridin-4-yl)oxy]-3-fluorophenyl]-8-oxo-7-thiophen-2-yl-3,4-dihydro-1H-pyrido[2,1-c][1,4]oxazine-9-carboxamide]
300 to 1000 nM | ≤ 100 nM | COCCOc1cc2nccc(Oc3ccc(NC(=O)c4c(C)n(C)c(C)c(-c5coc6ccccc56)c4=O)cc3F)c2nc1OC [Compound 264, 5-(1-Benzofuran-3-yl)-N-[3-fluoro-4-[[6-methoxy-7-(2-methoxyethoxy)-1,5-naphthyridin-4-yl]oxy]phenyl]-1,2,6-trimethyl-4-oxopyridine-3-carboxamide]
100 to 300 nM | 300 to 1000 nM | COc1cc2nccc(Oc3ccc(NC(=O)c4cccn(-c5cc[n+]([O-])cc5)c4=O)cc3F)c2nc1OC [Compound 247, N-[4-[(6,7-Dimethoxy-1,5-naphthyridin-4-yl)oxy]-3-fluorophenyl]-1-(1-oxidopyridin-1-ium-4-yl)-2-oxopyridine-3-carboxamide hydrochloride]
≤ 100 nM | ≤ 100 nM | COc1cnc2c(Oc3ccc(NC(=O)c4cnc(C)c(-c5cccs5)c4O)cc3)ccnc2c1 [Compound 257, 4-Hydroxy-N-[4-[(7-methoxy-1,5-naphthyridin-4-yl)oxy]phenyl]-6-methyl-5-thiophen-2-ylpyridine-3-carboxamide]
≤ 100 nM | ≤ 100 nM | COc1cc2nccc(Oc3ccc(NC(=O)c4cnc(C)c(-c5ccco5)c4O)cc3)c2cc1OC [Compound 258, N-[4-(6,7-Dimethoxyquinolin-4-yl)oxyphenyl]-5-(furan-2-yl)-4-hydroxy-6-methylpyridine-3-carboxamide]
300 to 1000 nM | 300 to 1000 nM | COc1cc2nccc(Oc3ccc(NC(=O)c4cnc(C)c(-c5ccco5)n4)cc3F)c2nc1OC [Compound 269, N-[4-[(6,7-Dimethoxy-1,5-naphthyridin-4-yl)oxy]-3-fluorophenyl]-6-(furan-2-yl)-5-methylpyrazine-2-carboxamide]
